Source: patent US20250154154A1 (Relay Binney Street, 2nd Floor, priority 2020, published 2025)

Key:
RBE cells = experiment: Cell Viability Protocol (CellTiterGlo), RBE cells; format: cell-based; details: RBE or SNU-1079 cells, 72 or 120 hour, cell line and time not given
How it was run: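 RBE cells plated at 1200/well in RPMI 1640 with 10% FBS, incubated 24 h, then dosed with compound from DMSO stocks and incubated 72 or 120 h at 37° C. CellTiterGlo luminescence normalised to DMSO control; IC50 from 4-parameter fit.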

[1] = test system: phospho-S6RP (Ser 235/236) in RBE cells; experiment: Cellular Proliferation Protocol (cellular phospho-S6RP HTRF), RBE cells; format: cell-based; details: 6 hours treatment, RBE or SNU-1079 cells, cell line not given
Description: Cellular Proliferation Protocol
Cellular phospho-S6RP (Ser 235/236) was measured using a Fluorescence Resonance Energy Transfer (FRET) sandwich assay format (Cisbio HTRF Cat. No. 64RP6PEG). This format uses 2 different, labelled antibodies (Eu^3+-Cryptate donor and d2 acceptor) that positively modulate a specific signal in proportion to phospho-S6RP (Ser 235/236) directly in cells. RBE or SNU-1079 cells were cultivated in T-75 flasks at 37° C., 5% CO2, 95% relative humidity in RPMI 1640 medium with 10% FBS and 1% Penicillin/Streptomycin and detached with trypsin/EDTA at 80-90% confluency. Cells were then seeded in 40 μL volume per well in 384-well flat-bottom polystyrene microplates (Corning Cat. No. 3570) at a seeding density of 2000 cells/well for RBE and 3000 cells/well for SNU-1079 followed by 24 hour incubation at 37° C., 5% CO2, 95% relative humidity. On the next day, compounds were diluted to […] the indicated concentrations and 40 nL of these treatment compounds, along with DMSO vehicle control, were added to the cells (final concentration of compounds is then the indicated concentrations). Treatment was carried out for 6 hours at 37° C., 5% CO2, 95% relative humidity after which the plates were cooled to room temperature before aspirating the medium. Cells were then lysed on a shaker for 45 minutes at room temperature with 20 μL of 1× supplemented lysis buffer per well. After lysis, 5 μL of pre-mixed antibodies was added per well. Plates were covered with black sealing film and incubated overnight at room temperature on a shaker before being read on a PerkinElmer EnVision microplate reader. Percent activation was calculated relative to DMSO control and IC50 values were obtained from dose-response data fitted to a 4-parameter curve.

SRC = SRC (Homo sapiens, UniProt P12931); experiment: SRC Biochemical Assay Protocol (microfluidic mobility shift assay, FLPeptide4 substrate)
How it was run: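 Recombinant SRC (0.26 nM) preincubated 30 min at RT with compound (0.0017–100 μM) and 1.5 μM FLPeptide4, then 50 μM ATP added; 90 min reaction in HEPES pH 7.4, 10 mM MgCl2, 1% DMSO, EDTA-quenched. Phosphopeptide quantified by microfluidic mobility shift; IC50 from 4-parameter logistic fit.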

| Compound | IC50 (SRC) [nM] | IC50 (RBE cells) [nM] | IC50 ([1]; 6 h) [nM] | IC50 [1] [nM] |
| --- | --- | --- | --- | --- |
| C=CC(=O)N1CCC(C#Cc2c(-c3ccc(Oc4ccccc4)cc3)c3c(N)ncnc3n2C(C)CO)CC1 (stereo not drawn) [Example I-27] | 10 to 1000 | 10 to 1000 | ≤ 10 |  |
| C=CC(=O)N1CCC(N2CC(C#Cc3c(-c4ccc(F)c5c4OCO5)c4c(N)ncnc4n3C(C)C)C2)CC1 [II-134] | ≤ 10 | 10 to 1000 |  | 10 to 1000 |
| C=CC(=O)N1CCC(C#Cc2c(-c3ccc(Oc4ccccc4)cc3)c3c(N)ncnc3n2C(C)C(=O)OC)CC1 (stereo not drawn) [Example I-42] | 10 to 1000 | 10 to 1000 | 10 to 1000 |  |
| C=CC(=O)N1CCC(N2CC(C#Cc3c(-c4ccc5c(c4)OCCO5)c4c(N)ncnc4n3C)C2)CC1 [II-104] | 10 to 1000 | 10 to 1000 |  | 10 to 1000 |
| C=CC(=O)N1C[C@@H]2[C@@H](C#Cc3c(-c4ccc(Oc5cccc(C)n5)c(OC)c4)c4c(N)ncnc4n3CS(C)(=O)=O)[C@@H]2C1 [II-51] | 10 to 1000 | 10 to 1000 |  | 10 to 1000 |
| C=CC(=O)N1CC[C@@H](N2CC(C#Cc3c(-c4cccc5c4cnn5C)c4c(N)ncnc4n3C)C2)[C@@H](O)C1 [II-63, 1-((3S,4R)-4-(3-((4-amino-7-methyl-5-(1-methyl-1H-indazol-4-yl)-7H-pyrrolo[2,3-d]pyrimidin-6-yl)ethynyl)azetidin-1-yl)-3-hydroxypiperidin-1-yl)prop-2-en-1-one] | 1000 to 10000 | 1000 to 10000 | 1000 to 10000 |  |
| C=CC(=O)N1CC(N2CCC(C#Cc3c(-c4ccc(Oc5ccccc5)cc4)c4c(N)ncnc4n3C(C)C)CC2)C1 [Example I-45] | ≤ 10 | ≤ 10 | ≤ 10 |  |
| C=CC(=O)N1CCC(N2CC(C#Cc3c(-c4ccc(Oc5ccccc5)c(OC)c4)c4c(N)ncnc4n3C)C2)CC1 [II-1] | 10 to 1000 | ≤ 10 | ≤ 10 |  |
| C=CC(=O)N1CC[C@@H](N2CC(C#Cc3c(-c4ccc(Oc5cccc(C)n5)cc4OC)c4c(N)ncnc4n3C)C2)[C@@H](O)C1 [II-19] | 10 to 1000 | 1000 to 10000 |  | 10 to 1000 |
| 1-((3S,4R)-4-(3-((4-amino-7-methyl-5-(4-(1-methyl-cyclopropoxy)phenyl)-7H-pyrrolo[2,3-d]pyrimidin-6-yl)ethynyl)azetidin-1-yl)-3-hydroxypiperidin-1-yl)prop-2-en-1-one [II-17] | 10 to 1000 | ≤ 10 |  | ≤ 10 |
| C=CC(=O)N1CC[C@@H](N2CC(C#Cc3c(-c4ccc(OC5CC5)c(OC)c4)c4c(N)ncnc4n3C)C2)[C@@H](O)C1 [II-68] | 1000 to 10000 | 1000 to 10000 |  | 10 to 1000 |
| C=CC(=O)N1CCC(N2CC(C#Cc3c(-c4ccc(C5CC5)cc4)c4c(N)ncnc4n3C)C2)CC1 [II-99] | 10 to 1000 | 10 to 1000 |  | 10 to 1000 |
| C=CC(=O)N1CCC(N2CC(C#Cc3c(-c4ccc(Cl)c(OC)c4)c4c(N)ncnc4n3CCOC)C2)CC1 [II-87] | 10 to 1000 | 10 to 1000 |  | 10 to 1000 |

The next lines start with results.

| IC50 (SRC) [nM] | Compound | IC50 (RBE cells) [nM] | IC50 ([1]; 6 h) [nM] | IC50 [1] [nM] |
| --- | --- | --- | --- | --- |
| ≤ 10 | C=CC(=O)N1CCC(N2CC(C#Cc3c(-c4ccc(Oc5cccc(C)n5)cc4)c4c(N)ncnc4n3C)C2)C[C@H]1CO (stereo partly drawn) [II-199, 1-((2S)-4-(3-((4-amino-7-methyl-5-(4-(6-methylpyridin-2-yloxy)phenyl)-7H-pyrrolo[2,3-d]pyrimidin-6-yl)ethynyl)azetidin-1-yl)-2-(hydroxymethyl)piperidin-1-yl)prop-2-en-1-one] | ≤ 10 | ≤ 10 |  |
| > 10000 | C=CC(=O)N1CCC(N2CC(C#Cc3c(-c4ccc(Oc5ccccc5)c(Cl)n4)c4c(N)ncnc4n3C)C2)CC1 [II-314] | 10 to 1000 |  | 10 to 1000 |
| ≤ 10 | C=CC(=O)N1CC[C@H](N2CC(C#Cc3c(-c4ccc(Oc5ccccc5)c(OC)c4)c4c(N)ncnc4n3C)C2)[C@H](O)C1 [II-247, 1-((3R,4S)-4-(3-((4-amino-5-(3-methoxy-4-phenoxyphenyl)-7-methyl-7H-pyrrolo[2,3-d]pyrimidin-6-yl)ethynyl)azetidin-1-yl)-3-hydroxypiperidin-1-yl)prop-2-en-1-one] | ≤ 10 | ≤ 10 |  |
| ≤ 10 | C=CC(=O)NCC(=O)N1C[C@@H]2[C@@H](C#Cc3c(-c4ccc(Oc5ccccc5)cc4)c4c(N)ncnc4n3C)[C@@H]2C1 [II-211, N-[2-[(1R,5S,6S)-6-[2-[4-amino-7-methyl-5-(4-phenoxyphenyl)-7H-pyrrolo[2,3-d]pyrimidin-6-yl]ethynyl]-3-azabicyclo[3.1.0]hexan-3-yl]-2-oxoethyl]prop-2-enamide] | ≤ 10 | ≤ 10 |  |
| 10 to 1000 | COCCN(C)C/C=C/C(=O)N1C[C@@H]2[C@@H](C#Cc3c(-c4ccc(Oc5cccc(F)c5)cc4)c4c(N)ncnc4n3C)[C@@H]2C1 [II-232, (E)-1-((1R,5S,6s)-6-((4-amino-5-(4-(3-fluorophenoxy)phenyl)-7-methyl-7H-pyrrolo[2,3-d]pyrimidin-6-yl)ethynyl)-3-azabicyclo[3.1.0]hexan-3-yl)-4-((2-methoxyethyl) (methyl)amino)but-2-en-1-one] | 10 to 1000 | 10 to 1000 |  |
| 10 to 1000 | C=CC(=O)N1C[C@@H]2[C@@H](C#Cc3c(-c4ccc(Oc5cccc(C)n5)c(OC)c4)c4c(N)ncnc4n3C)[C@@H]2C1 [II-218, 1-((1R,5S,6s)-6-((4-amino-5-(3-methoxy-4-((6-methylpyridin-2-yl)oxy)phenyl)-7-methyl-7H-pyrrolo[2,3-d]pyrimidin-6-yl)ethynyl)-3-azabicyclo[3.1.0]hexan-3-yl)prop-2-en-1-one] | 10 to 1000 | 10 to 1000 |  |
| 10 to 1000 | CN(C)C/C=C/C(=O)N1C[C@@H]2[C@@H](C#Cc3c(-c4ccc(Oc5ccccc5)cc4)c4c(N)ncnc4n3C)[C@@H]2C1 [III-2] | ≤ 10 |  | ≤ 10 |
| 10 to 1000 | C=CC(=O)N1CC[C@@H](N2CC(C#Cc3c(-c4ccc(Cl)c(OC)n4)c4c(N)ncnc4n3C)C2)[C@@H](F)C1 [II-320] | 10 to 1000 |  | 10 to 1000 |
| 10 to 1000 | C=CC(=O)N1CCC(N2CC(C#Cc3c(-c4ccc(Oc5ccccc5)cn4)c4c(N)ncnc4n3C)C2)CC1 [II-313] | 10 to 1000 |  | 10 to 1000 |
| 10 to 1000 | CN(C)C/C=C/C(=O)N1CC(C#Cc2c(-c3ccc(Oc4ccccc4)cc3)c3c(N)ncnc3n2C2CC(=O)N(C)C2)C1 (stereo not drawn) [II-192, (E)-4-(4-amino-6-((1-(4-(dimethylamino)but-2-enoyl)azetidin-3-yl)ethynyl)-5-(4-phenoxyphenyl)-7H-pyrrolo[2,3-d]pyrimidin-7-yl)-1-methylpyrrolidin-2-one] | 1000 to 10000 | 1000 to 10000 |  |
| 10 to 1000 | C=CC(=O)N1CCC(N2CC(C#Cc3c(-c4ccc(Oc5cccc(C)n5)cc4)c4c(N)ncnc4n3C)C2)C(F)C1 (stereo not drawn) [II-216, 1-(4-(3-((4-amino-7-methyl-5-(4-(6-methylpyridin-2-yloxy)phenyl)-7H-pyrrolo[2,3-d]pyrimidin-6-yl)ethynyl)azetidin-1-yl)-3-fluoropiperidin-1-yl)prop-2-en-1-one] | 10 to 1000 | 10 to 1000 |  |
